Assay results reported in article PMC8348780, “Preparation and Evaluation of Novel Folate Isonitrile ^99mTc Complexes as Potential Tumor Imaging Agents to Target Folate Receptors” (Molecules, 2021).

Tests used:
[1] = Partition coefficient, 1-octanol / phosphate buffer pH 7.4; type: physicochemical; conditions: 1-octanol / phosphate buffer 0.025 M
Experimental: The partition coefficient was measured as follows: 1.9 mL of phosphate buffer solution (0.025 M, pH 7.4), 2.0 mL of 1-octanol, and 0.1 mL of ^99mTc-CN5FA or ^99mTc-CNPFA solution were added to the centrifuge tube, and the sample was swirled for 5 min and centrifuged for 5 min (3000 r/min). Then, the radioactivity counts of the two phases were measured by taking 0.1 mL from the organic phase and the water phase. The partition coefficient P was calculated. The final partition coefficient was expressed as log P ± SD.

[2] = test system: KB tumor-bearing mice; experiment: Biodistribution study in KB tumor-bearing mice; type: in vivo, BALB/c nude mice; conditions: for Tumor uptake: KB tumor
Experimental: The biodistribution experiments were divided into normal groups and inhibition groups (n = 3), in which the inhibition group was injected with inhibitor (about 4 × 10^4 µg/kg) 30 min in advance. The KB tumor-bearing mice were decapitated 30 and 120 min after the tail vein injection of 0.1 mL labeled solution (about 7.4 × 10^4 Bq). The heart, liver, lung, kidney, spleen, stomach, bone, muscle, intestine, tumor, blood, and other related tissues and organs were wiped clean and weighed, and the radioactivity count was measured. Each tissue per gram of injection dose (%ID/g) was calculated.

[3] = test system: KB tumor-bearing mice; experiment: SPECT/CT imaging study in KB tumor-bearing mice; type: in vivo, BALB/c nude mice; conditions: 2 h post injection, about 18.5 MBq i.v.
Experimental: The SPECT/CT imaging experiments were also divided into a normal group and an inhibition group (n = 3). The labeled solution (about 18.5 MBq) was injected into the tail vein of nude mice bearing KB tumor. The inhibition group was injected with 100 µg FA (about 4 × 10^4 µg/kg) 30 min in advance. After 2 h, the SPECT/CT scan was performed in anesthetized mice by using 1.5% isoflurane. The SPECT acquisition (peak value 140 keV, 20% width, 90° rotation, MMP 919 Collimator) was performed after 4 min of CT scanning (512 views, 2 × 2 binding, 75 kV, exposure time 230 ms). SPECT/CT images were made using HiSPECT software and vivoquant 2.5 software.

[4] = Stability in mouse serum at 37 °C (RCP by radio-HPLC); type: in vitro ADME; conditions: 4 h
Experimental: (§1) The complexes were determined by ITLC/SG of the ACD system and radio-HPLC. The ITLC/SG trip was cut into 10 equal parts, and radioactive counting of ITLC strips was determined by a γ-counter. ITLC results of both complexes were as follows: in ACD solution, [^99mTc]Tc-CN5FA and [^99mTc]Tc-CNPFA stayed at the origin (Rf = 0–0.1), while ^99mTcO4^− (Rf = 0.9–1.0) and ^99mTcO2·nH2O (Rf = 0.8–1.0) were moved to the front. Radio-HPLC was analyzed by a mobile phase system consisting of 0.1% TFA water (solvent A) and 0.1% TFA acetonitrile (solvent B) with a gradient of 0−2 min 10% B, 2−5 min 10%−90% B, 10−20 min 90% B, and 20−25 min 90%−10% B (system B) at a flow rate of 1 mL/min. All experiments were performed in triplicate.
(§2) The stability of [^99mTc]Tc-CN5FA and [^99mTc]Tc-CNPFA in vitro was evaluated by measuring the RCP of the complexes. Stability in saline was achieved by holding the solution at room temperature for 4 h. Stability in the serum was achieved by mixing 100 μL of [^99mTc]Tc-CN5FA or [^99mTc]Tc-CNPFA with 200 μL of mouse serum at 37 °C for 4 h. After precipitation using acetonitrile, centrifugation, and concentration, the solutions were analyzed by radio-HPLC.

[5] = Stability in saline / radiolabeling solution at room temperature (RCP by radio-HPLC); type: physicochemical; conditions: 4 h
Experimental: as §1, §2

[6] = target: T1, folate receptor (KB cells) (Homo sapiens, UniProt P15328); experiment: In vitro competitive binding with KB cells; conditions: 37 °C, 2 h, competitive binding with inhibitor
T1 construct: endogenous in cells; host or cells: KB cells
Experimental: KB cells were cultured with FFRPMI 1640 medium 24 h in advance on a 48-well plate with 5 × 10^4 cells per well. The labeling solution was diluted to 5 μCi/mL with the same medium after growing, and the inhibitor was prepared at different concentrations. The 48-well plates were divided into eight groups, and each group was incubated with 100 μL of inhibitor solution, 100 μL of diluted labeled solution (5 μCi/mL), and 200 μL of medium at 37 °C for 2 h.
After removing the cell plate from the incubator, the medium was removed, and the cells were washed with PBS (0.1 M, pH 7.4). The washed cells were lysed with NaOH (1 M) for 5 min. Pyrolysates were collected in the hoses, and the radioactivity count of each hose was measured by a γ-counter. The data were analyzed with GraphPad Prism 5.0 and nonlinearly fit to the log IC50 ± SD value.

[7] = Solubility of the ligand in the labeling solution; type: physicochemical; conditions: labeling solution under weak acid
[8] = 2 h p.i., block: FA about 4 × 10^4 µg/kg 30 min in advance

T1 sequence (P15328 25-257): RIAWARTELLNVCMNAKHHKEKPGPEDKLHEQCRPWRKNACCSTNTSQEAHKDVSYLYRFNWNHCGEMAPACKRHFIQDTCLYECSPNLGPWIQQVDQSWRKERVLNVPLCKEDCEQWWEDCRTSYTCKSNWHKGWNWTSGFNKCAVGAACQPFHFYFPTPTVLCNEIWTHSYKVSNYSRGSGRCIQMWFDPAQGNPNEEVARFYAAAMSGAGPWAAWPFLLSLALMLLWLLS

With `[99Tc+].[C-]#[N+]CCOCCOCCOCCOCCC(=O)NCCNC(=O)CC[C@H](NC(=O)c1ccc(NCc2cnc3nc(N)[nH]c(=O)c3n2)cc1)C(=O)O.[C-]#[N+]CCOCCOCCOCCOCCC(=O)NCCNC(=O)CC[C@H](NC(=O)c1ccc(NCc2cnc3nc(N)[nH]c(=O)c3n2)cc1)C(=O)O.[C-]#[N+]CCOCCOCCOCCOCCC(=O)NCCNC(=O)CC[C@H](NC(=O)c1ccc(NCc2cnc3nc(N)[nH]c(=O)c3n2)cc1)C(=O)O.[C-]#[N+]CCOCCOCCOCCOCCC(=O)NCCNC(=O)CC[C@H](NC(=O)c1ccc(NCc2cnc3nc(N)[nH]c(=O)c3n2)cc1)C(=O)O.[C-]#[N+]CCOCCOCCOCCOCCC(=O)NCCNC(=O)CC[C@H](NC(=O)c1ccc(NCc2cnc3nc(N)[nH]c(=O)c3n2)cc1)C(=O)O.[C-]#[N+]CCOCCOCCOCCOCCC(=O)NCCNC(=O)CC[C@H](NC(=O)c1ccc(NCc2cnc3nc(N)[nH]c(=O)c3n2)cc1)C(=O)O` [[^99mTc]Tc-CNPFA] the “log P” value [1] was −2.28 ± 0.02, the “T/B (tumor/blood ratio)” value ([2]; 0.5 h p.i.) was 1.02 and the “T/M (tumor/muscle ratio)” value ([2]; 0.5 h p.i.) was 2.82. The Blood uptake ([2]; 0.5 h p.i., i.v., n = 3) was 4.08 ± 0.54 %ID/g, the Bone uptake ([2]; 0.5 h p.i., i.v., n = 3) was 1.77 ± 0.06 %ID/g and the Heart uptake ([2]; 0.5 h p.i., i.v., n = 3) was 1.92 ± 0.06 %ID/g. It also gave an Intestines uptake ([2]; 0.5 h p.i., i.v., n = 3) of 4.98 ± 1.57 %ID/g, a Kidney uptake ([2]; 0.5 h p.i., i.v., n = 3) of 81.30 ± 4.69 %ID/g and a Liver uptake ([2]; 0.5 h p.i., i.v., n = 3) of 15.84 ± 1.19 %ID/g. For the same compound, the Lung uptake ([2]; 0.5 h p.i., i.v., n = 3) was 4.01 ± 0.30 %ID/g, the Muscle uptake ([2]; 0.5 h p.i., i.v., n = 3) was 1.48 ± 0.07 %ID/g and the Spleen uptake ([2]; 0.5 h p.i., i.v., n = 3) was 3.65 ± 0.72 %ID/g. The Stomach uptake ([2]; 0.5 h p.i., i.v., n = 3) was 6.67 ± 0.73 %ID/g, the Thyroid uptake ([2]; 0.5 h p.i., i.v., n = 3) was 0.08 ± 0.02 %ID and the “T/B (tumor/blood ratio)” value ([2]; 2 h p.i.) was 1.73. The “T/M (tumor/muscle ratio)” value ([2]; 2 h p.i.) was 3.01, the Blood uptake [2, 8] was 1.97 ± 0.34 %ID/g and the Bone uptake [2, 8] was 1.02 ± 0.10 %ID/g. It also gave a Heart uptake [2, 8] of 0.81 ± 0.12 %ID/g, an Intestines uptake [2, 8] of 1.70 ± 0.22 %ID/g and a Kidney uptake [2, 8] of 37.60 ± 2.46 %ID/g. For the same compound, the Liver uptake [2, 8] was 10.88 ± 1.03 %ID/g, the Lung uptake [2, 8] was 2.11 ± 0.28 %ID/g and the Muscle uptake [2, 8] was 0.51 ± 0.09 %ID/g. The Spleen uptake [2, 8] was 3.30 ± 0.66 %ID/g, the Stomach uptake [2, 8] was 2.18 ± 0.22 %ID/g and the Thyroid uptake [2, 8] was 0.05 ± 0.01 %ID. For the same compound, the Blood uptake ([2]; 2 h p.i., i.v., n = 3) was 1.46 ± 0.03 %ID/g, the Bone uptake ([2]; 2 h p.i., i.v., n = 3) was 0.79 ± 0.11 %ID/g and the Heart uptake ([2]; 2 h p.i., i.v., n = 3) was 1.30 ± 0.09 %ID/g. It also gave an Intestines uptake ([2]; 2 h p.i., i.v., n = 3) of 1.60 ± 0.24 %ID/g, a Kidney uptake ([2]; 2 h p.i., i.v., n = 3) of 80.25 ± 1.23 %ID/g and a Liver uptake ([2]; 2 h p.i., i.v., n = 3) of 10.39 ± 0.23 %ID/g. For the same compound, the Lung uptake ([2]; 2 h p.i., i.v., n = 3) was 2.04 ± 0.06 %ID/g, the Muscle uptake ([2]; 2 h p.i., i.v., n = 3) was 0.84 ± 0.04 %ID/g and the Spleen uptake ([2]; 2 h p.i., i.v., n = 3) was 2.85 ± 0.26 %ID/g. The Stomach uptake ([2]; 2 h p.i., i.v., n = 3) was 3.65 ± 0.75 %ID/g, the Thyroid uptake ([2]; 2 h p.i., i.v., n = 3) was 0.06 ± 0.01 %ID and the Tumor uptake ([2]; 0.5 h p.i., i.v., n = 3) was 4.18 ± 0.36 %ID/g. For the same compound, the Tumor uptake [2, 8] was 1.62 ± 0.08 %ID/g, the Tumor uptake ([2]; 2 h p.i., i.v., n = 3) was 2.53 ± 0.12 %ID/g and the “Visualization of tumor lesions by SPECT/CT” value [3] was “clearly visualized”. The RCP after incubation [4] was “more than 95%”, the RCP after incubation [5] was “more than 95%” and the IC50 [6] was 3.8 ± 0.07 nM.

For `[C-]#[N+]CCCCCC(=O)NCCNC(=O)CC[C@H](NC(=O)c1ccc(NCc2cnc3nc(N)[nH]c(=O)c3n2)cc1)C(=O)O` [CN5FA, N^2-(4-(((2-Amino-4-oxo-3,4-dihydropteridin-6-yl)methyl)amino)benzoyl)-N^5-(2-(6-isocyanohexanamido)ethyl)-L-glutamine], the Solubility of ligand [7] was “poor” and the Liver uptake ([2]; 2 h p.i., labeled under weak acid condition (before the pH was changed to weakly alkaline)) was 52.35 ± 1.19 %ID/g.
